Test results from publication PMC5442318, “Hundreds of dual-stage antimalarial molecules discovered by a functional gametocyte screen” (Nature Communications, 2017).

Key:
[1] = system: P. falciparum stage V female gametocytes; assay: P. falciparum female gametocyte activation assay (Pf FGAA), 24 h or 48 h preincubation, Pfs25 expression readout; format: cell-based, Plasmodium falciparum NF54; conditions: mean; read-out: Gametocytes mean Pf FGAA IC50
Method in brief: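 Purified stage V gametocytes from P. falciparum NF54 gametocyte cultures were exposed to compounds for 24 h or 48 h at 37 °C under 3% O2/5% CO2, then activated by temperature drop plus xanthurenic acid. Activated females were stained with Cy3-anti-Pfs25 (0.5 μg ml^−1) for 24 h at 26 °C and counted by high-content imaging; pIC50 by nonlinear regression.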

[2] = system: P. falciparum stages IV–V gametocytes; assay: Gametocytocidal ATP-depletion assay (gametocyte ATP bioluminescence); format: cell-based, Plasmodium falciparum
Method in brief: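 Purified stage IV–V gametocytes (12,500/well) incubated with compound for 48 h at 37 °C under 3% O2/5% CO2. ATP measured by BacTiter-Glo luminescence as a viability surrogate; hits tested at 2 μM single concentration.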

HepG2 cells = assay: HepG2 cytotoxicity assay; format: cell-based; conditions: mean
Method in brief: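 Steps: equilibrate plates and detection reagent at room temperature (30 min); dispense CellTiter-Glo; allow 10 min at room temperature; record luminescence.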

[3] = system: P. falciparum asexual blood stages; conditions: TCAMS data; ref 1 (Gamo et al., 2010); read-out: Pf Asexual blood stages XC50; cited from earlier work

SMILES | IC50 [1] | Gametocytes mean ATP inhibition at 2µM (%) [2] | HepG2 cells mean TOX50 (HepG2 cells) | IC50 [3]
CS(=O)(=O)O.FC(F)(F)COc1ccc(CCNCCCCNCCc2ccc(OCC(F)(F)F)c3ccccc23)c2ccccc12 [TCMDC-137282] | 200 nM | 91.27% | 1.66 µM | 650 nM
CS(=O)(=O)O.FC(F)(F)COc1ccc2ccccc2c1CCNCCCCNCCc1c(OCC(F)(F)F)ccc2ccccc12 [TCMDC-137317] | 1010 nM | 88.24% | 2.09 µM | 430 nM
COc1cc2c(cc1CCNCCCCNCCc1cc3c(cc1OC)CCCC3)CCCC2.CS(=O)(=O)O [TCMDC-137319] | 890 nM | 88.42% | 1.86 µM | 1000 nM
COc1ccc2c(c1CCNCCCCNCCc1c(OC)ccc3c1CCCC3)CCCC2.CS(=O)(=O)O [TCMDC-137324] | 640 nM | 95.49% | 1.68 µM | 380 nM
C=CCOc1ccc2ccccc2c1CNCCCCCCNCc1c(OCC=C)ccc2ccccc12.CS(=O)(=O)O [TCMDC-137340] | 700 nM | 58.99% | 1.93 µM | 860 nM
Cl.c1ccc2c(Nc3ccc(Cc4ccc(Nc5c6ccccc6nc6ccccc56)cc4)cc3)c3ccccc3nc2c1 [TCMDC-137354] | 1040 nM | -29.34% | 3.85 µM | 160 nM
Br.C/C=C/C=C/C1=NCCc2cc(OCCC)ccc21 [TCMDC-137442] | 1300 nM | 30.75% | 18.29 µM | 910 nM
Cl.N=C(NCCCCC1CCCCC1)c1cccc(C(=N)NCCCCC2CCCCC2)n1 [TCMDC-137452] | 1050 nM | 95.86% | 1.82 µM | 400 nM
CC(CNC(=N)c1cccc(C(=N)NCC(C)Oc2cccc(C3CCCCC3)c2)n1)Oc1cccc(C2CCCCC2)c1.Cl (stereo not shown) [TCMDC-137455] | 1270 nM | 92.56% | 2.16 µM | 920 nM
N=C(NCC1CC1c1ccccc1)c1cccc(C(=N)NCC2CC2c2ccccc2)n1 (stereo not shown) [TCMDC-137456] | 1890 nM | 24.65% | 6.21 µM | 1760 nM
CCCCN(CCCC)CCCCNc1c2ccc(Cl)cc2nc2ccc(OC)cc12.Cl [TCMDC-137460] | 1970 nM | 11.49% | 4.73 µM | 180 nM
COc1cc(CNCCCCCCNCc2cc(OC)c3ccccc3c2OC)c(OC)c2ccccc12.CS(=O)(=O)O [TCMDC-137502] | 1670 nM | 1.18% | 3.67 µM | 700 nM
Clc1ccc(/N=C(/NCCCCCCCN/C(=N\c2ccc(Cl)cc2)Nc2ccc(Cl)cc2)Nc2ccc(Cl)cc2)cc1 [TCMDC-137529] | 580 nM | 15.83% | 2.00 µM | 320 nM
COc1ccc(CNCCCCCCNCc2ccc(OC)c3ccccc23)c2ccccc12.Cl [TCMDC-137631] | 720 nM | 16.64% | 1.82 µM | 580 nM
CN1CCN(CCNc2c3ccccc3nc3c2ccc2ccccc23)CC1.Cl [TCMDC-137723] | 3490 nM | 67.71% | 5.07 µM | 610 nM
COc1ccc2nc(-c3ccccc3)cc(NCCCNc3cc(-c4ccccc4)nc4ccc(OC)cc34)c2c1.Cl [TCMDC-137734] | 5600 nM | 2.17% | 70.79 µM | 120 nM

SMILES | IC50 [1] | Gametocytes mean ATP inhibition at 2µM (%) [2] | HepG2 cells mean TOX50 (HepG2 cells) | IC50 [3]
Cl.c1ccc2c(NCCCCCCCCCNc3ccnc4ccccc34)ccnc2c1 [TCMDC-137750] | 850 nM | 35.04% | 1.50 µM | 120 nM
Cl.c1ccc2c(NCCCCCCCCNc3ccnc4ccccc34)ccnc2c1 [TCMDC-137751] | 1020 nM | 39.31% | 1.15 µM | 160 nM
CC(CO)(CO)NCc1cc2c3ccccc3c(CNC(C)(CO)CO)cc2c2ccccc12.CS(=O)(=O)O [TCMDC-137752] | 4420 nM | 71.86% | 7.33 µM | 720 nM
CS(=O)(=O)O.CSc1ccc2ccccc2c1CCNCCCCNCCc1c(SC)ccc2ccccc12 [TCMDC-137763] | 1010 nM | 93.38% | 1.82 µM | 410 nM
CC1CCCCN1CCCNc1nc(NCc2ccccc2)c2ccccc2n1 (stereo not shown) [TCMDC-137771] | 7250 nM | 38.73% | 14.62 µM | 950 nM
Clc1ccc(Nc2nc3ccc(Cl)cc3nc2Nc2ccc(Cl)cc2)cc1 [TCMDC-137772] | 1910 nM | 27.62% | 7.86 µM | 130 nM
COc1cc2ccccc2c(CNCCCCCCNCc2c(OC)c(OC)cc3ccccc23)c1OC.CS(=O)(=O)O [TCMDC-137795] | 670 nM | 13.93% | 4.62 µM | 1110 nM
COc1ccc2ccc(OC)c(CNCCCCCCNCc3c(OC)ccc4ccc(OC)cc34)c2c1.CS(=O)(=O)O [TCMDC-137796] | 1210 nM | 68.84% | 3.31 µM | 700 nM
COc1ccc2cc(CNCCCCCCNCc3ccc4cc(OC)ccc4c3)ccc2c1.CS(=O)(=O)O [TCMDC-137797] | 590 nM | 35.46% | 1.55 µM | 620 nM
c1cc(C2=N[C@H]3CCCC[C@@H]3N2)ccc1OCCCOc1ccc(C2=N[C@@H]3CCCC[C@H]3N2)cc1 [TCMDC-137803] | 11500 nM | 57.55% | 38.02 µM | 730 nM
Nc1nc(N)c2c(ccc3c2ccn3Cc2cccc(F)c2)n1 [TCMDC-137810] | 1420 nM | 0.71% | 0.06 µM | 3 nM
Nc1nc(N)c2c(ccc3c2ccn3Cc2ccc(-c3ccccc3)cc2)n1 [TCMDC-137813] | 2010 nM | 26.93% | 1.16 µM | 50 nM
CS(=O)(=O)O.FC(F)(F)COc1ccc2ccccc2c1CNCCCCCCNCc1c(OCC(F)(F)F)ccc2ccccc12 [TCMDC-137816] | 1090 nM | 27.96% | 1.84 µM | 350 nM
CCCCSc1c(CNCCCCCCNCc2ccc3ccccc3c2SCCCC)ccc2ccccc12.CS(=O)(=O)O [TCMDC-137825] | 970 nM | 10.43% | 2.76 µM | 1000 nM
COc1c(OC)c(OC)c2ccccc2c1CNCCCCCCNCc1c(OC)c(OC)c(OC)c2ccccc12.Cl [TCMDC-137827] | 1670 nM | -6.56% | 2.95 µM | 760 nM
